We go through 28 molecules from patent publication US20240299385A1 (ReWind Therapeutics NV, priority 2021, published 2024).

Molecules are shown by their SMILES.

In this assay the target is T1, human GPR17 receptor (Homo sapiens, UniProt Q13304).
T1 construct: host or cells: HEK-293
T1 sequence (Q13304 whole entry): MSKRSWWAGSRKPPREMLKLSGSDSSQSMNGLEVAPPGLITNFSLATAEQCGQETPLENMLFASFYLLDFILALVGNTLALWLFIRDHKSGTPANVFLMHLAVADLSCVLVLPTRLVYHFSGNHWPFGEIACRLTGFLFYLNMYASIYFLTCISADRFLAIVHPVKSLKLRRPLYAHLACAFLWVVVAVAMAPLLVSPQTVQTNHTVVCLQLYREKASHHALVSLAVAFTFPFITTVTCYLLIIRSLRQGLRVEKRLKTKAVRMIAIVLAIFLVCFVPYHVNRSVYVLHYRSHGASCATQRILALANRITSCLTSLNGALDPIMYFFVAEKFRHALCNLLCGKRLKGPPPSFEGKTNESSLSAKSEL
The assay is described as follows: Calcium mobilization functional assay (Fluo-8, FLIPR TETRA) in HEK-293 hGPR17 (Gα-q assay). Format: cell-based. Particulars: antagonism of MDL29,951 (~EC80) induced Ca2+ signal; cell line (HEK-293 hGPR17 or HEK-293 Suchi5 hGPR17) not given. In a few lines:
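Fluo-8-loaded HEK-293 hGPR17 cells (60 min dye loading, room temperature) were preincubated with compound for twenty minutes, then challenged with agonist MDL29,951 at ~EC80, 500 nM. Intracellular calcium release via Gα-q was recorded as FLIPR fluorescence for a further 2 minutes; compounds tested in duplicate.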
What is called IC50 is the concentration needed to halve the response being measured. In the case of `O=S(=O)(Nc1cc(F)c(C(F)(F)F)cc1F)c1c[nH]c(-c2cccs2)c1` [Cpd 272, N-[2,5-difluoro-4-(trifluoromethyl)phenyl]-5-(2-thienyl)-1H-pyrrole-3-sulfonamide], the IC50 was < 0.5 µM.
In the case of `O=S(=O)(Nc1cc(F)c(C(F)(F)F)cc1F)c1c[nH]c(-c2ccsc2)c1` [Cpd 273, N-[2,5-difluoro-4-(trifluoromethyl)phenyl]-5-(3-thienyl)-1H-pyrrole-3-sulfonamide] it was < 0.5 µM; in that of `Cc1ccc(-c2cc(S(=O)(=O)Nc3cc(F)c(C(F)(F)F)cc3F)c[nH]2)s1` [Cpd 274, N-[2,5-difluoro-4-(trifluoromethyl)phenyl]-5-(5-methyl-2-thienyl)-1H-pyrrole-3-sulfonamide], 0.5 to 5 µM; in that of `O=S(=O)(Nc1cc(F)c(C(F)(F)F)cc1F)c1c[nH]c(-c2ccco2)c1` [Cpd 275, N-[2,5-difluoro-4-(trifluoromethyl)phenyl]-5-(2-furyl)-1H-pyrrole-3-sulfonamide], < 0.5 µM.
As for `O=S(=O)(Nc1cc(F)c(C(F)(F)F)cc1F)c1c[nH]c(-c2ccoc2)c1` [Cpd 276, N-(2,5-difluoro-4-(trifluoromethyl)phenyl)-5-(furan-3-yl)-1H-pyrrole-3-sulfonamide], the half-inhibitory concentration (IC50) was < 0.5 µM.
Consider `Cn1cncc1-c1cc(S(=O)(=O)Nc2cc(F)c(C(F)(F)F)cc2F)c[nH]1` [Cpd 277, N-[2,5-difluoro-4-(trifluoromethyl)phenyl]-5-(3-methylimidazol-4-yl)-1H-pyrrole-3-sulfonamide], for which the IC50 was in the range of 0.5 to 5 µM.
In the case of `O=S(=O)(Nc1cc(F)c(C(F)(F)F)cc1F)c1c[nH]c(-c2ccsn2)c1` [Cpd 278, N-[2,5-difluoro-4-(trifluoromethyl)phenyl]-5-isothiazol-3-yl-1H-pyrrole-3-sulfonamide], the 50% inhibitory concentration (IC50) was < 0.5 µM.
Turning to `Cc1cccc(-c2cc(S(=O)(=O)Nc3cc(F)c(C(F)(F)F)cc3F)c[nH]2)n1` [Cpd 279, N-[2,5-difluoro-4-(trifluoromethyl)phenyl]-5-(6-methyl-2-pyridyl)-1H-pyrrole-3-sulfonamide], the IC50 is 0.5 to 5 µM.
As for `Cc1ccc(-c2cc(S(=O)(=O)Nc3cc(F)c(C(F)(F)F)cc3F)c[nH]2)nc1` [Cpd 280, N-[2,5-difluoro-4-(trifluoromethyl)phenyl]-5-(5-methyl-2-pyridyl)-1H-pyrrole-3-sulfonamide], the IC50 was 0.5 to 5 µM.
As for `COc1cccc(-c2cc(S(=O)(=O)Nc3cc(F)c(C(F)(F)F)cc3F)c[nH]2)n1` [Cpd 281, N-[2,5-difluoro-4-(trifluoromethyl)phenyl]-5-(6-methoxy-2-pyridyl)-1H-pyrrole-3-sulfonamide], the IC50 is < 0.5 µM.
As to `O=S(=O)(Nc1cc(F)c(C(F)(F)F)cc1F)c1c[nH]c(-c2ncccc2C(F)(F)F)c1` [Cpd 282, N-[2,5-difluoro-4-(trifluoromethyl)phenyl]-5-[3-(trifluoromethyl)-2-pyridyl]-1H-pyrrole-3-sulfonamide], the IC50 fell in the range of 5 to 50 µM.
Consider `COc1cccc(-c2cc(S(=O)(=O)Nc3ccc(C#N)cc3F)c[nH]2)c1C` [Cpd 283, N-(4-cyano-2-fluoro-phenyl)-5-(3-methoxy-2-methyl-phenyl)-1H-pyrrole-3-sulfonamide], for which the IC50 was 5 to 50 µM.
Under `N#Cc1ccc(NS(=O)(=O)c2c[nH]c(-c3ccc(F)c(Cl)c3)c2)c(F)c1` [Cpd 284, 5-(3-chloro-4-fluoro-phenyl)-N-(4-cyano-2-fluoro-phenyl)-1H-pyrrole-3-sulfonamide] stands 0.5 to 5 µM; under `Cc1ccc(F)cc1-c1cc(S(=O)(=O)Nc2ccc(C#N)cc2F)c[nH]1` [Cpd 285, N-(4-cyano-2-fluoro-phenyl)-5-(5-fluoro-2-methyl-phenyl)-1H-pyrrole-3-sulfonamide], < 0.5 µM; under `Cc1cc(NS(=O)(=O)c2c[nH]c(-c3ccccn3)c2)c(F)cc1C#N` [Cpd 286, N-(4-cyano-2-fluoro-5-methyl-phenyl)-5-(2-pyridyl)-1H-pyrrole-3-sulfonamide], 0.5 to 5 µM.
In the case of `N#Cc1ccc(NS(=O)(=O)c2c[nH]c(-c3ccc(Cl)c(F)c3)c2)c(F)c1` [Cpd 287, 5-(4-chloro-3-fluoro-phenyl)-N-(4-cyano-2-fluoro-phenyl)-1H-pyrrole-3-sulfonamide], the IC50 lay within 0.5 to 5 µM.
In the case of `Cc1cc(F)cc(-c2cc(S(=O)(=O)Nc3ccc(C#N)cc3F)c[nH]2)c1` [Cpd 288, N-(4-cyano-2-fluoro-phenyl)-5-(3-fluoro-5-methyl-phenyl)-1H-pyrrole-3-sulfonamide] it was 0.5 to 5 µM.
For `N#Cc1ccc(NS(=O)(=O)c2c[nH]c(-c3c(F)cccc3Cl)c2)c(F)c1` [Cpd 289, 5-(2-chloro-6-fluoro-phenyl)-N-(4-cyano-2-fluoro-phenyl)-1H-pyrrole-3-sulfonamide], the concentration for half-maximal inhibition (IC50) is < 0.5 µM.
With `COc1c(F)cccc1-c1cc(S(=O)(=O)Nc2ccc(C#N)cc2F)c[nH]1` [Cpd 290, N-(4-cyano-2-fluoro-phenyl)-5-(3-fluoro-2-methoxy-phenyl)-1H-pyrrole-3-sulfonamide], the half-maximal inhibitory concentration (IC50) is < 0.5 µM.
`N#Cc1ccc(NS(=O)(=O)c2c[nH]c(-c3ccc(F)c(F)c3)c2)c(F)c1` [Cpd 291, N-(4-cyano-2-fluoro-phenyl)-5-(3,4-difluorophenyl)-1H-pyrrole-3-sulfonamide]: the IC50 was in the range of 0.5 to 5 µM.
For the molecule `N#Cc1ccc(NS(=O)(=O)c2c[nH]c(-c3cccc(Cl)c3Cl)c2)c(F)c1` [Cpd 292, N-(4-cyano-2-fluoro-phenyl)-5-(2,3-dichlorophenyl)-1H-pyrrole-3-sulfonamide], the 50% inhibitory concentration (IC50) was 0.5 to 5 µM.
In the case of `Cc1ccc(-c2cc(S(=O)(=O)Nc3cc(F)c(C(F)(F)F)cc3F)c[nH]2)c(F)c1` [Cpd 293, N-[2,5-difluoro-4-(trifluoromethyl)phenyl]-5-(2-fluoro-4-methyl-phenyl)-1H-pyrrole-3-sulfonamide] it was 5 to 50 µM; in that of `COc1ccc(-c2cc(S(=O)(=O)Nc3cc(F)c(C(F)(F)F)cc3F)c[nH]2)cc1` [Cpd 294, N-[2,5-difluoro-4-(trifluoromethyl)phenyl]-5-(4-methoxyphenyl)-1H-pyrrole-3-sulfonamide], 5 to 50 µM; in that of `Cc1ccc(-c2cc(S(=O)(=O)Nc3cc(F)c(C(F)(F)F)cc3F)c[nH]2)cc1` [Cpd 295, N-[2,5-difluoro-4-(trifluoromethyl)phenyl]-5-(p-tolyl)-1H-pyrrole-3-sulfonamide], 5 to 50 µM.
Under `Cc1ccc(Cl)cc1-c1cc(S(=O)(=O)Nc2ccc(C#N)cc2F)c[nH]1` [Cpd 296, 5-(5-chloro-2-methyl-phenyl)-N-(4-cyano-2-fluoro-phenyl)-1H-pyrrole-3-sulfonamide] stands 0.5 to 5 µM.
Regarding `O=S(=O)(Nc1cc(F)c(C(F)(F)F)cc1F)c1c[nH]c(-c2ccc(Cl)cc2)c1` [Cpd 297, 5-(4-chlorophenyl)-N-[2,5-difluoro-4-(trifluoromethyl)phenyl]-1H-pyrrole-3-sulfonamide], the half-maximal inhibitory concentration (IC50) lay in the range of 5 to 50 µM.
With `COc1ccccc1-c1cc(S(=O)(=O)Nc2cc(F)c(C(F)(F)F)cc2F)c[nH]1` [Cpd 298, N-[2,5-difluoro-4-(trifluoromethyl)phenyl]-5-(2-methoxyphenyl)-1H-pyrrole-3-sulfonamide], the IC50 is 0.5 to 5 µM.
In the case of `COc1cc(F)cc(-c2cc(S(=O)(=O)Nc3ccc(C#N)cc3F)c[nH]2)c1` [Cpd 299, N-(4-cyano-2-fluoro-phenyl)-5-(3-fluoro-5-methoxy-phenyl)-1H-pyrrole-3-sulfonamide] it was 0.5 to 5 µM.
